From patent US12697368B2, “TSG6 polypeptide fragment for dry eye disease” (The University of Manchester, priority 2019, dated 2026)

Legend:
rat eyes = conditions: ethanol application and mechanical debridement; cited from earlier work
[1] = Solubility in PBS by UV spectrophotometry; format: physicochemical
Description: (§1) The solubility and aggregation state of full-length TSG-6 and LINK_TSG6 in PBS were compared using UV spectrophotometry and dynamic light scattering (DLS) at a range of concentrations. […] The full-length protein had much lower solubility with less than 40% of the protein remaining in solution at 0.4, 0.8, 1.6. and 3.2 mg/ml.

[2] = Aggregation state in PBS by dynamic light scattering (DLS); format: physicochemical
Description: as §1

[3] = interaction is cooperative; cited from earlier work
NOD.B10.H2b mice = conditions: recombinant TSG-6 (0.1%) topical 4 times a day, 1 week; vs 0.05% cyclosporine twice a day; cited from earlier work

For “full-length TSG-6: full length human recombinant TSG-6 protein (R&D Systems), ~35 kDa secreted product of TNF-stimulated gene-6”, the “corneal opacity as compared to a PBS control” value (rat eyes) is listed as “reduced”, the “neovascularization as compared to a PBS control” value (rat eyes) is listed as “reduced” and the “protein remaining in solution” value ([1]; PBS, 0.4, 0.8, 1.6 and 3.2 mg/ml) is listed as “less than 40%”. For the same substance, the “solubility and stability in solution” value ([1]; general statement) was “insoluble and prone to aggregation”, the aggregation ([2]; 0.2, 0.4, 0.8, 1.6 and 3.2 mg/ml) was “highly aggregated” and the “size of aggregates formed” value ([2]; 1.6 and 3.2 mg/ml, DLS measurements out of range) was “greater than 25 million”. For the same substance, the “binding to HA compared with LINK_TSG6” value [3] was “binds more effectively” and the “efficacy in inflammation mediated dry eye compared with cyclosporine eye drops” value (NOD.B10.H2b mice) was “as effective”.
